Measurements: US20260103465A1, “GLYCOGEN SYNTHASE KINASE 3 INHIBITORS AND USES THEREOF” (The Broad Institute, Inc., priority 2023, published 2026)
pIC50: −log10 of the molar value. Read-outs that look alike come from different tables or passages of the source.

Assays:
[1] = target: T1, GSK3a (GST-full length GSK3a) (Homo sapiens, UniProt P49840); assay: GSK3a TR-FRET kinase inhibition assay; format: biochemical
T1 construct: GST-full length GSK3a [SignalChem G08-10G]; purchased SignalChem G08-10G
Method: (§1) TR-FRET assay was performed in a white, 384 well, low volume, flat bottom plate (Grenier). After a 30 minute preincubation in assay buffer with the indicated concentration of compound, the kinase activity was initiated by the addition of the substrates. 1 nM GSK3a (GST-full length GSK3a [SignalChem G08-10G]) or 1 nM GSK3b (GST-full length GSK3b: [SignalChem G08-9G]) were then incubated at ambient temperature for 100 minutes in 10 μl of 50 mM Tris, pH 7.5, 20 mM MgCl2, 0.05 mM DTT, 100 μg/ml BSA and 1% DMSO, with 200 nM biotinylated peptide substrate (biotinylated and S645 phosphorylated glycogen synthase 631-650) and ATP (e.g., at 2 μM, 4 μM, 10 μM, 100 μM, or 1 mM). The kinase activity was quenched with 2 μl of 250 mM EDTA. A 10 μl volume of 40 nM Strepavidin-d2, 2 nM […] antibody in TR-FRET Detection Buffer (Invitrogen) was then added. After 60 min at room temperature the plate was read on Envision plate reader using Ex: 340 nm, Em: 615 nm and […]. The normalized 665/615 Signal ratio versus log compound concentration was analyzed by XLFIT to yield IC50 values.

[2] = target: T2, GSK3b (GST-full length GSK3b) (Homo sapiens, UniProt P49841); assay: GSK3b TR-FRET kinase inhibition assay; format: biochemical
T2 construct: GST-full length GSK3b: [SignalChem G08-9G]; purchased SignalChem G08-9G
Method: as §1

[3] = 4 μM ATP, read-out: GSK3α TR-FRET 4 μM ATP GMean IC50
[4] = 2 μM ATP, read-out: GSK3β TR-FRET 2 μM ATP GMean IC50
[5] = 1 mM ATP, Table 5, read-out: GSK3α TR-FRET 1 mM ATP Average IC50
[6] = 1 mM ATP, Table 5, read-out: GSK3β TR-FRET 1 mM ATP Average IC50
[7] = 1 mM ATP, Table 3, read-out: GSK3b TR-FRET 1 mM ATP Average IC50
[8] = 1 mM ATP, Table 3, read-out: GSK3a TR-FRET 1 mM ATP Average IC50

T2 sequence (P49841 whole entry): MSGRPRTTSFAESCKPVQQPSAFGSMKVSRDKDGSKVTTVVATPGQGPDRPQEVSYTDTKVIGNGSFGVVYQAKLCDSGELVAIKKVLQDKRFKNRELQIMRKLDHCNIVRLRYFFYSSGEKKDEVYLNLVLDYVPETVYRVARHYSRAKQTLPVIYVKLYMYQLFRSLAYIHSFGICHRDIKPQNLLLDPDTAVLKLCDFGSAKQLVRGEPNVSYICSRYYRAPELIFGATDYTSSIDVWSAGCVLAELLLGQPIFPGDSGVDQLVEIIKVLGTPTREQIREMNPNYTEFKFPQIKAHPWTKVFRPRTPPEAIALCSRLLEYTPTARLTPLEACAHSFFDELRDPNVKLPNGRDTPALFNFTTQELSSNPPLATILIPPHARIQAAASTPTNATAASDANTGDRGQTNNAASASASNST
T1 sequence (P49840 whole entry): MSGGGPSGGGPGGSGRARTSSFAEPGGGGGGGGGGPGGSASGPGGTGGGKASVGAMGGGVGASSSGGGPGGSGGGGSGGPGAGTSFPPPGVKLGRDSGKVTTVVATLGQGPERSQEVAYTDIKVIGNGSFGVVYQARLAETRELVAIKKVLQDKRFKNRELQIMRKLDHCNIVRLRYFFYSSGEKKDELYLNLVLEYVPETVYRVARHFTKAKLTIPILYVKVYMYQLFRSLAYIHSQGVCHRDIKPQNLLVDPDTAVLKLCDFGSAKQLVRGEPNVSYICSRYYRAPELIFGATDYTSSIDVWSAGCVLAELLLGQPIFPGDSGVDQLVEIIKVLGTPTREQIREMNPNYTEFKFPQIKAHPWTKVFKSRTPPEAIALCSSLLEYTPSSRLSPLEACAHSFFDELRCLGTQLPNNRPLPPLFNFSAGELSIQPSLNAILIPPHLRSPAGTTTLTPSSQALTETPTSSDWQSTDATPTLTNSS

Row | Structure (SMILES) | pIC50 [1, 5] | pIC50 [2, 6] | other results
1 | CCC1(c2ccccc2)C2=C(CC(C)(C)CC2=O)Nc2ncccc21 (racemic) [Compound 102] | – | – | pIC50 [1, 3]: 6.00 to 7.00; pIC50 [2, 4]: 6.00 to 7.00
2 | CCC1(c2ccccc2)C2=C(CC(C)(C)CC2=O)Nc2ncc(F)cc21 (racemic) [Compound 114] | – | – | pIC50 [1, 3]: ≥ 7.00; pIC50 [2, 4]: ≥ 7.00
3 | CCC1(c2cccc(C3CCC3)c2)C2=C(CC(C)(C)CC2=O)Nc2ncccc21 (racemic) [Compound 1012] | – | – | pIC50 [1, 3]: ≥ 7.00; pIC50 [2, 4]: ≥ 7.00
4 | CCC1(c2ccccc2)C2=C(CC3(CCC3)CC2=O)Nc2ncccc21 (single isomer, unassigned) [110 A] | – | – | pIC50 [1, 3]: ≥ 7.00; pIC50 [2, 4]: ≥ 7.00
5 | CCC1(c2ccccc2)C2=C(CC3(CCC3)CC2=O)Nc2ncccc21 (single isomer, unassigned) [110 B] | – | – | pIC50 [1, 3]: < 5.30; pIC50 [2, 4]: < 5.30
6 | CCC1(c2ccccc2)C2=C(CC(C)(C)CC2=O)Nc2ncc(F)cc21 (single isomer, unassigned) [114 A] | – | – | pIC50 [1, 3]: ≥ 7.00; pIC50 ([1]; 1 mM ATP, Table 4, read-out: GSK3α TR-FRET 1 mM ATP GMean IC50): 6.00 to 7.00; pIC50 [2, 4]: ≥ 7.00; pIC50 ([2]; 1 mM ATP, Table 4, read-out: GSK3β TR-FRET 1 mM ATP GMean IC50): 5.30 to 6.00
7 | CCC1(c2ccccc2)C2=C(CC(C)(C)CC2=O)Nc2ncc(F)cc21 (single isomer, unassigned) [114 B] | – | – | pIC50 [1, 3]: 6.00 to 7.00; pIC50 [2, 4]: 5.30 to 6.00
8 | CCC1(c2ccccc2)C2=C(CC(C)(C)CC2=O)Nc2ncc(C(F)(F)F)cc21 (single isomer, unassigned) [133 A] | – | – | pIC50 [1, 3]: < 5.30; pIC50 [2, 4]: < 5.30
9 | CCC1(c2ccccc2)C2=C(CC(C)(C)CC2=O)Nc2ncc(C(F)(F)F)cc21 (single isomer, unassigned) [133 B] | – | – | pIC50 [1, 3]: ≥ 7.00; pIC50 [2, 4]: ≥ 7.00
10 | CCC1(c2cccc(-c3ccnc(C)c3C)c2)C2=C(CC(C)(C)CC2=O)Nc2ncccc21 (single isomer, unassigned) [147 A] | – | – | pIC50 [1, 3]: 5.30 to 6.00; pIC50 [2, 4]: < 5.30
11 | Cc1cnc2c(c1C)C(C)(c1ccccc1)C1=C(CC(C)(C)CC1=O)N2 (single isomer, unassigned) [601A] | 5.30 to 6.00 | 5.30 to 6.00 | –
12 | Cc1cnc2c(c1C)C(C)(c1ccccc1)C1=C(CC(C)(C)CC1=O)N2 (single isomer, unassigned) [601B] | 4.70 to 5.30 | 4.70 to 5.30 | –
13 | COc1cnc2c(c1)C(C)(c1ccccc1)C1=C(CC(C)(C)CC1=O)N2 (single isomer, unassigned) [602B] | – | 4.70 to 5.30 | –
14 | Cc1cnc2c(c1C#N)C(C)(c1ccccc1)C1=C(CC(C)(C)CC1=O)N2 (single isomer, unassigned) [603A] | 4.70 to 5.30 | 4.70 to 5.30 | –
15 | Cc1cnc2c(c1C#N)C(C)(c1ccccc1)C1=C(CC(C)(C)CC1=O)N2 (single isomer, unassigned) [603B] | 6.00 to 7.00 | 6.00 to 7.00 | –
16 | CC1(C)CC2=C(C(=O)N1)C(C)(c1ccccc1)c1c(ncc(F)c1C#N)N2 (single isomer, unassigned) [604A] | 5.30 to 6.00 | 5.30 to 6.00 | –
17 | CC1(C)CC2=C(C(=O)N1)C(C)(c1ccccc1)c1c(ncc(F)c1C#N)N2 (single isomer, unassigned) [604B] | ≥ 7.00 | ≥ 7.00 | –
18 | CC1(C)CC(=O)C2=C(C1)Nc1ncc(C#N)c(C#N)c1C2(C)c1ccccc1 (single isomer, unassigned) [605A] | 6.00 to 7.00 | 6.00 to 7.00 | –
19 | CC1(C)CC(=O)C2=C(C1)Nc1ncc(C#N)c(C#N)c1C2(C)c1ccccc1 (single isomer, unassigned) [605B] | 4.70 to 5.30 | 4.70 to 5.30 | –
20 | CC1(C)CC(=O)C2=C(C1)Nc1ncc3ccccc3c1C2(C)c1ccccc1 (single isomer, unassigned) [606A] | 4.70 to 5.30 | 4.70 to 5.30 | –
21 | CC1(C)CC(=O)C2=C(C1)Nc1ncc3ccccc3c1C2(C)c1ccccc1 (single isomer, unassigned) [606B] | 5.30 to 6.00 | 5.30 to 6.00 | –
22 | C=Cc1cnc2c(c1C#N)C(C)(c1ccccc1)C1=C(CC(C)(C)CC1=O)N2 (single isomer, unassigned) [607A] | 5.30 to 6.00 | 5.30 to 6.00 | –
23 | C=Cc1cnc2c(c1C#N)C(C)(c1ccccc1)C1=C(CC(C)(C)CC1=O)N2 (single isomer, unassigned) [607B] | 4.70 to 5.30 | 4.70 to 5.30 | –
24 | CCc1cnc2c(c1C#N)C(C)(c1ccccc1)C1=C(CC(C)(C)CC1=O)N2 (single isomer, unassigned) [608A] | 5.30 to 6.00 | 5.30 to 6.00 | –
25 | CCc1cnc2c(c1C#N)C(C)(c1ccccc1)C1=C(CC(C)(C)CC1=O)N2 (single isomer, unassigned) [608B] | 4.70 to 5.30 | 4.70 to 5.30 | –

Row | Structure (SMILES) | pIC50 [1, 5] | pIC50 [2, 6] | other results
26 | Cn1ncc2c3c(ncc21)NC1=C(C(=O)CC(C)(C)C1)C3(C)c1ccccc1 (single isomer, unassigned) [609A] | 4.70 to 5.30 | 4.70 to 5.30 | –
27 | Cn1ncc2c3c(ncc21)NC1=C(C(=O)CC(C)(C)C1)C3(C)c1ccccc1 (single isomer, unassigned) [609B] | 4.70 to 5.30 | 5.30 to 6.00 | –
28 | CNc1cnc2c(c1C#N)C(C)(c1ccccc1)C1=C(CC(C)(C)CC1=O)N2 (single isomer, unassigned) [610B] | 4.70 to 5.30 | 4.70 to 5.30 | –
29 | COc1cnc2c(c1C#N)C(C)(c1ccccc1)C1=C(CC(C)(C)CC1=O)N2 (single isomer, unassigned) [612A] | – | 4.70 to 5.30 | –
30 | COc1cnc2c(c1C#N)C(C)(c1ccccc1)C1=C(CC(C)(C)CC1=O)N2 (single isomer, unassigned) [612B] | 4.70 to 5.30 | 4.70 to 5.30 | –
31 | CC1(C)CC(=O)C2=C(C1)Nc1ncc(CO)c(C#N)c1C2(C)c1ccccc1 (single isomer, unassigned) [613B] | 4.70 to 5.30 | 5.30 to 6.00 | –
32 | CC1(C)CC(=O)C2=C(C1)Nc1ncc(CF)c(C#N)c1C2(C)c1ccccc1 (single isomer, unassigned) [614A] | 4.70 to 5.30 | 4.70 to 5.30 | –
33 | CN1C(=O)C2=C(CC1(C)C)Nc1ncc(F)c(C#N)c1C2(C)c1ccccc1 (single isomer, unassigned) [615A] | 5.30 to 6.00 | 5.30 to 6.00 | –
34 | CN1C(=O)C2=C(CC1(C)C)Nc1ncc(F)c(C#N)c1C2(C)c1ccccc1 (single isomer, unassigned) [615B] | ≥ 7.00 | ≥ 7.00 | –
35 | CC1(C)CC(=O)C2=C(C1)Nc1ncc(F)c(C#N)c1C2(C)c1cccc(F)c1 (single isomer, unassigned) [618A] | 4.70 to 5.30 | 4.70 to 5.30 | –
36 | CC1(C)CC(=O)C2=C(C1)Nc1ncc(F)c(C#N)c1C2(C)c1cccc(F)c1 (single isomer, unassigned) [618B] | 6.00 to 7.00 | 6.00 to 7.00 | –
37 | CC(=O)c1cnc2c(c1C#N)C(C)(c1ccccc1)C1=C(CC(C)(C)CC1=O)N2 (single isomer, unassigned) [621B] | – | 4.70 to 5.30 | –
38 | CC(C)c1cnc2c(c1C#N)C(C)(c1ccccc1)C1=C(CC(C)(C)CC1=O)N2 (single isomer, unassigned) [622A] | – | 4.70 to 5.30 | –
39 | CC1(C)CC(=O)C2=C(C1)Nc1ncc(F)cc1C2(C)c1cccc(C(F)F)c1 (single isomer, unassigned) [623A] | 4.70 to 5.30 | – | –
40 | CC1(C)CC2=C(C(=O)N1)C(C)(c1ccccc1)c1cc(C(F)(F)F)cnc1N2 (single isomer, unassigned) [625B] | 4.70 to 5.30 | – | –
41 | CC(C)Oc1cccc(C2(C)C3=C(CC(C)(C)CC3=O)Nc3ncc(F)cc32)c1 (single isomer, unassigned) [629A] | – | 4.70 to 5.30 | –
42 | CC1(C)CC2=C(C(=O)N1)C(C)(c1cccc(S(C)(=O)=O)c1)c1cccnc1N2 (single isomer, unassigned) [630B] | 4.70 to 5.30 | – | –
43 | C=Cc1cnc2c(c1Br)C(C)(c1ccccc1)C1=C(CC(C)(C)CC1=O)N2 (single isomer, unassigned) [640A] | – | 4.70 to 5.30 | –
44 | Cc1c(C2(C)C3=C(CC(C)(C)CC3=O)Nc3ncc(F)cc32)cccc1S(C)(=O)=O (single isomer, unassigned) [643B] | 4.70 to 5.30 | – | –
45 | CC1(C)CC(=O)C2=C(C1)Nc1nccc(F)c1C2(C)c1ccccc1 (single isomer, unassigned) [Compound 105A] | – | – | pIC50 [2, 7]: 4.70 to 5.30
46 | CC1(C)CC(=O)C2=C(C1)Nc1ncc(F)cc1C2(C)c1ccccc1 (single isomer, unassigned) [Compound 107A] | – | – | pIC50 [2, 7]: 4.70 to 5.30
47 | CC1(C)CC(=O)C2=C(C1)Nc1nccc(C#N)c1C2(C)c1ccccc1 (single isomer, unassigned) [Compound 108B] | – | – | pIC50 [1, 8]: 4.70 to 5.30
48 | CC1(C)CC(=O)C2=C(C1)Nc1ncc(F)c(F)c1C2(C)c1ccccc1 (single isomer, unassigned) [Compound 116A] | – | – | pIC50 [1, 8]: 4.70 to 5.30
49 | CC1(C)CC(=O)C2=C(C1)Nc1ncc3c(c1C2(C)c1ccccc1)CCC3 (single isomer, unassigned) [Compound 118A] | – | – | pIC50 [2, 7]: 4.70 to 5.30
